Results: PubChem BioAssay (NCI)
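In this assay, cells in 96-well plates receive the compound at five concentrations for 48 hours. Endpoints are linearly interpolated between the surrounding concentrations. GI50 is the concentration that inhibits growth by half. At the TGI there is no net growth.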

test system: IGROV1 ovarian; experiment: inhibition of tumour cell growth, NCI panel, 48 h

Point of comparison: `OCC(O)C(O)C(O)c1nn(-c2ccc(F)cc2)c2nc3cc(Cl)c(Cl)cc3nc12` (configuration not stated), TGI 63.6 µM. Against it:
- CN1CCc2ccccc2C(C(=O)c2ccc3c(c2)OCO3)C1=O (configuration not stated) — higher, > 100 µM
- Cc1ccc2ccc(-c3ccccc3)c3c2c1C(=O)c1ccccc1C3=O — higher, > 100 µM
- COc1ccc(C2Cc3cc(OC)c(OC)c(OC)c3C2)cc1 (configuration not stated) — higher, > 100 µM

test system: RXF 393 renal; experiment: inhibition of tumour cell growth, NCI panel, 48 h

Point of comparison: `Cc1cc(Cl)ccc1NC(=O)C1C(=O)N(c2ccc(Cl)cc2C)C(=O)/C1=N\NC(N)=S` (configuration not stated), TGI 54.1 µM. Against it:
- CC1(C)OC(=O)C(=C2CCC(C(=O)Nc3cccc(C(F)(F)F)c3)N2)C(=O)O1 (configuration not stated) — higher, > 100 µM
- CN(C)CCN1CCc2c([nH]c3ccccc23)C1c1cccnc1 (configuration not stated) — higher, > 100 µM
- CCN(c1ccccc1)[C@H]1C(=O)N(c2ccc([N+](=O)[O-])cc2)[C@H]1c1ccc(OC)cc1 — higher, > 100 µM
- C[C@H]1CC[P+](C)(c2ccccc2)C1 (some centres not stated) — higher, > 100 µM
- COc1cc(OC)c2c(=O)c3cccc([N+](=O)[O-])c3n(C)c2c1 — higher, > 100 µM
- COc1cccc(/C=N\NC(=O)C(C)SC(C)C(=O)N/N=C/c2cccc(OC)c2)c1 (configuration not stated) — 1.9-fold lower, 28.6 µM
- Cc1cc(C)nc(NS(=O)(=O)c2ccc(Nc3c4ccccc4nc4c(C(=O)NCCN(C)C)cccc34)cc2)n1 — 2.7-fold lower, 20.2 µM
- COc1cc2c(c(OC)c1OC)C(=O)NCCC2 — higher, > 100 µM
- O=C1CCC(=O)N1Sc1ccccc1 — higher, > 100 µM
- O=C(/C=C/c1ccccc1O)c1ccccc1Cl — higher, > 100 µM
- CCCCC1(C(NC(=O)c2ccccc2Cl)c2ccncc2)C(=O)N(c2ccccc2)N(c2ccccc2)C1=O (configuration not stated) — higher, > 100 µM
- N#Cc1cc(S(=O)(=O)Nc2nc3cc(Cl)ccc3o2)c(SCc2ccccc2)cc1Cl — 2.2-fold lower, 25 µM
- C1=CC2CCC1CN2CCC1CNc2ccccc21 (configuration not stated) — higher, > 100 µM
- CN1CCc2ccccc2C(C(=O)c2ccc3c(c2)OCO3)C1=O (configuration not stated) — higher, > 100 µM
- Cc1ccc2ccc(-c3ccccc3)c3c2c1C(=O)c1ccccc1C3=O — higher, > 100 µM
- OCC(O)C(O)C(O)c1nn(-c2ccc(F)cc2)c2nc3cc(Cl)c(Cl)cc3nc12 (configuration not stated) — within 1.5-fold, 36.9 µM

`N#Cc1cc(S(=O)(=O)Nc2nc3cc(Cl)ccc3o2)c(SCc2ccccc2)cc1Cl` showed a GI50 of 12.5 µM.

test system: UACC-62 melanoma; experiment: inhibition of tumour cell growth, NCI panel, 48 h

Point of comparison: `N#Cc1cc(S(=O)(=O)Nc2nc3cc(Cl)ccc3o2)c(SCc2ccccc2)cc1Cl`, TGI 25.9 µM. Against it:
- CC1(C)OC(=O)C(=C2CCC(C(=O)Nc3cccc(C(F)(F)F)c3)N2)C(=O)O1 (configuration not stated) — higher, > 100 µM
- CN(C)CCN1CCc2c([nH]c3ccccc23)C1c1cccnc1 (configuration not stated) — higher, > 100 µM
- CCN(c1ccccc1)[C@H]1C(=O)N(c2ccc([N+](=O)[O-])cc2)[C@H]1c1ccc(OC)cc1 — higher, > 100 µM
- COc1ccc(/C=C\c2cc(OC)c(OC)c(OC)c2)cc1 — higher, > 100 µM
- C[C@H]1CC[P+](C)(c2ccccc2)C1 (some centres not stated) — higher, > 100 µM
- COc1cc(OC)c2c(=O)c3cccc([N+](=O)[O-])c3n(C)c2c1 — higher, > 100 µM
- COc1cccc(/C=N\NC(=O)C(C)SC(C)C(=O)N/N=C/c2cccc(OC)c2)c1 (configuration not stated) — 3.8-fold higher, 97.4 µM
- Cc1cc(C)nc(NS(=O)(=O)c2ccc(Nc3c4ccccc4nc4c(C(=O)NCCN(C)C)cccc34)cc2)n1 — 1.8-fold lower, 14.6 µM
- COc1cc2c(c(OC)c1OC)C(=O)NCCC2 — higher, > 100 µM
- O=C1CCC(=O)N1Sc1ccccc1 — higher, > 100 µM
- O=C(/C=C/c1ccccc1O)c1ccccc1Cl — higher, > 100 µM
- CCCCC1(C(NC(=O)c2ccccc2Cl)c2ccncc2)C(=O)N(c2ccccc2)N(c2ccccc2)C1=O (configuration not stated) — higher, > 100 µM
- C1=CC2CCC1CN2CCC1CNc2ccccc21 (configuration not stated) — higher, > 100 µM
- CN1CCc2ccccc2C(C(=O)c2ccc3c(c2)OCO3)C1=O (configuration not stated) — higher, > 100 µM
- Cc1cc(Cl)ccc1NC(=O)C1C(=O)N(c2ccc(Cl)cc2C)C(=O)/C1=N\NC(N)=S (configuration not stated) — 3.3-fold higher, 86.4 µM
- Cc1ccc2ccc(-c3ccccc3)c3c2c1C(=O)c1ccccc1C3=O — higher, > 100 µM
- OCC(O)C(O)C(O)c1nn(-c2ccc(F)cc2)c2nc3cc(Cl)c(Cl)cc3nc12 (configuration not stated) — within 1.5-fold, 35.9 µM
- COc1ccc(C2Cc3cc(OC)c(OC)c(OC)c3C2)cc1 (configuration not stated) — higher, > 100 µM

`N#Cc1cc(S(=O)(=O)Nc2nc3cc(Cl)ccc3o2)c(SCc2ccccc2)cc1Cl` was tested, and the GI50 was 13.2 µM.

test system: CCRF-CEM leukemia; experiment: inhibition of tumour cell growth, NCI panel, 48 h

Point of comparison: `O=C(/C=C/c1ccccc1O)c1ccccc1Cl`, TGI 88.5 µM. Against it:
- CC1(C)OC(=O)C(=C2CCC(C(=O)Nc3cccc(C(F)(F)F)c3)N2)C(=O)O1 (configuration not stated) — higher, > 100 µM
- CN(C)CCN1CCc2c([nH]c3ccccc23)C1c1cccnc1 (configuration not stated) — higher, > 100 µM
- CCN(c1ccccc1)[C@H]1C(=O)N(c2ccc([N+](=O)[O-])cc2)[C@H]1c1ccc(OC)cc1 — higher, > 100 µM
- COc1ccc(/C=C\c2cc(OC)c(OC)c(OC)c2)cc1 — higher, > 100 µM
- C[C@H]1CC[P+](C)(c2ccccc2)C1 (some centres not stated) — higher, > 100 µM
- COc1cc(OC)c2c(=O)c3cccc([N+](=O)[O-])c3n(C)c2c1 — higher, > 100 µM
- COc1cccc(/C=N\NC(=O)C(C)SC(C)C(=O)N/N=C/c2cccc(OC)c2)c1 (configuration not stated) — higher, > 93.5 µM
- Cc1cc(C)nc(NS(=O)(=O)c2ccc(Nc3c4ccccc4nc4c(C(=O)NCCN(C)C)cccc34)cc2)n1 — 3.9-fold lower, 22.6 µM
- COc1cc2c(c(OC)c1OC)C(=O)NCCC2 — higher, > 100 µM
- O=C1CCC(=O)N1Sc1ccccc1 — higher, > 100 µM
- CCCCC1(C(NC(=O)c2ccccc2Cl)c2ccncc2)C(=O)N(c2ccccc2)N(c2ccccc2)C1=O (configuration not stated) — higher, > 100 µM
- N#Cc1cc(S(=O)(=O)Nc2nc3cc(Cl)ccc3o2)c(SCc2ccccc2)cc1Cl — 3.3-fold lower, 27.1 µM
- C1=CC2CCC1CN2CCC1CNc2ccccc21 (configuration not stated) — higher, > 100 µM
- CN1CCc2ccccc2C(C(=O)c2ccc3c(c2)OCO3)C1=O (configuration not stated) — higher, > 100 µM
- Cc1cc(Cl)ccc1NC(=O)C1C(=O)N(c2ccc(Cl)cc2C)C(=O)/C1=N\NC(N)=S (configuration not stated) — 1.6-fold lower, 56.5 µM
- Cc1ccc2ccc(-c3ccccc3)c3c2c1C(=O)c1ccccc1C3=O — higher, > 100 µM
- OCC(O)C(O)C(O)c1nn(-c2ccc(F)cc2)c2nc3cc(Cl)c(Cl)cc3nc12 (configuration not stated) — 2.2-fold lower, 40 µM
- COc1ccc(C2Cc3cc(OC)c(OC)c(OC)c3C2)cc1 (configuration not stated) — higher, > 100 µM

`N#Cc1cc(S(=O)(=O)Nc2nc3cc(Cl)ccc3o2)c(SCc2ccccc2)cc1Cl` showed a GI50 of 14.1 µM.

test system: OVCAR-8 ovarian; experiment: inhibition of tumour cell growth, NCI panel, 48 h

Point of comparison: `N#Cc1cc(S(=O)(=O)Nc2nc3cc(Cl)ccc3o2)c(SCc2ccccc2)cc1Cl`, TGI 27.3 µM. Against it:
- CC1(C)OC(=O)C(=C2CCC(C(=O)Nc3cccc(C(F)(F)F)c3)N2)C(=O)O1 (configuration not stated) — higher, > 100 µM
- CN(C)CCN1CCc2c([nH]c3ccccc23)C1c1cccnc1 (configuration not stated) — higher, > 100 µM
- CCN(c1ccccc1)[C@H]1C(=O)N(c2ccc([N+](=O)[O-])cc2)[C@H]1c1ccc(OC)cc1 — higher, > 100 µM
- COc1ccc(/C=C\c2cc(OC)c(OC)c(OC)c2)cc1 — higher, > 100 µM
- C[C@H]1CC[P+](C)(c2ccccc2)C1 (some centres not stated) — higher, > 100 µM
- COc1cc(OC)c2c(=O)c3cccc([N+](=O)[O-])c3n(C)c2c1 — higher, > 100 µM
- COc1cccc(/C=N\NC(=O)C(C)SC(C)C(=O)N/N=C/c2cccc(OC)c2)c1 (configuration not stated) — 2.6-fold higher, 70 µM
- Cc1cc(C)nc(NS(=O)(=O)c2ccc(Nc3c4ccccc4nc4c(C(=O)NCCN(C)C)cccc34)cc2)n1 — within 1.5-fold, 20.5 µM
- COc1cc2c(c(OC)c1OC)C(=O)NCCC2 — higher, > 100 µM
- O=C1CCC(=O)N1Sc1ccccc1 — higher, > 100 µM
- O=C(/C=C/c1ccccc1O)c1ccccc1Cl — higher, > 100 µM
- CCCCC1(C(NC(=O)c2ccccc2Cl)c2ccncc2)C(=O)N(c2ccccc2)N(c2ccccc2)C1=O (configuration not stated) — higher, > 100 µM
- C1=CC2CCC1CN2CCC1CNc2ccccc21 (configuration not stated) — higher, > 100 µM
- CN1CCc2ccccc2C(C(=O)c2ccc3c(c2)OCO3)C1=O (configuration not stated) — higher, > 100 µM
- Cc1cc(Cl)ccc1NC(=O)C1C(=O)N(c2ccc(Cl)cc2C)C(=O)/C1=N\NC(N)=S (configuration not stated) — higher, > 100 µM
- Cc1ccc2ccc(-c3ccccc3)c3c2c1C(=O)c1ccccc1C3=O — higher, > 100 µM
- OCC(O)C(O)C(O)c1nn(-c2ccc(F)cc2)c2nc3cc(Cl)c(Cl)cc3nc12 (configuration not stated) — within 1.5-fold, 23 µM
- COc1ccc(C2Cc3cc(OC)c(OC)c(OC)c3C2)cc1 (configuration not stated) — higher, > 100 µM

In the case of `N#Cc1cc(S(=O)(=O)Nc2nc3cc(Cl)ccc3o2)c(SCc2ccccc2)cc1Cl`, the GI50 was 14.2 µM.
